# Data reported in patent US7432388B2 (Allergan, Inc., priority 2003, dated 2008).
# Experiments:
# RARβ = target: T1, RARβ (Homo sapiens, UniProt P10826); assay: ligand binding assay; settings: expressed in Ki numbers, read-out: RAR Binding β
# T1 sequence (P10826 1-455): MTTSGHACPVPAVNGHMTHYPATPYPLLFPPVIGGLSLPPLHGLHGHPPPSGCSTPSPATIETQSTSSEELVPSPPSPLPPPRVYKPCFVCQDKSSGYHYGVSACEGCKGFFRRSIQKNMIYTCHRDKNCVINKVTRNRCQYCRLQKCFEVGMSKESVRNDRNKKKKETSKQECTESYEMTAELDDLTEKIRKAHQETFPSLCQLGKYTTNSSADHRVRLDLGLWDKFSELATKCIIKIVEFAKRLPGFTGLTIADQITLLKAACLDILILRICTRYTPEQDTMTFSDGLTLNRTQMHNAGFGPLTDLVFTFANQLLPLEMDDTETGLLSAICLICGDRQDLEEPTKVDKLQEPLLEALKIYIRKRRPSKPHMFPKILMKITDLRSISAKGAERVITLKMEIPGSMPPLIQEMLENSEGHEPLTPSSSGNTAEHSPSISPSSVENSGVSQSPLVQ
# From the text: (§1) A holoreceptor transactivation assay and a ligand binding assay which measure the antagonist/agonist like activity of the compounds of the invention, or their ability to bind to the several retinoid receptor subtypes, respectively, are described in published PCT Application No. WO WO93/11755 (particularly on pages 30-33 and 37-41) published on Jun. 24, 1993, the specification of which is also incorporated herein by reference. A detailed experimental procedure for holoreceptor transactivations has been described by Heyman et al. Cell 68, 397-406, (1992); Allegretto et al. J. Biol. Chem. 268, 26625-26633, and Mangelsdorf et al. The Retinoids: Biology, Chemistry and Medicine, pp 319-349, Raven Press Ltd., New York, which are expressly incorporated herein by reference. The results obtained in this assay are expressed in EC50 numbers, as they are also in the chimeric receptor transactivation assay. The other functional assay running in the presence of 1 nM all-trans retinoic acid, namely PGA-RAR antagonist assay (utilizing glucocorticoid-retinoid chimeric receptors), is a modified chimeric receptor transactivation assay which tests the compounds for their antagonist-like activity in the RARα, RARγ and RARγ receptor subtypes. The results from this assay are normally expressed in IC50 numbers (See Teng et al. J. Med. Chem. 40, 2445-2452, (1997) incorporated herein by reference.)
# (§2) The results of the ligand binding assay are expressed in Ki numbers. (See Cheng et al. Biochemical Pharmacology Vol. 22 pp 3099-3108, expressly incorporated herein by reference.)
# RARα [1] = target: T2, RARα (Homo sapiens, UniProt P10276); assay: ligand binding assay; settings: expressed in Ki numbers, read-out: RAR Binding α
# T2 sequence (P10276 1-462): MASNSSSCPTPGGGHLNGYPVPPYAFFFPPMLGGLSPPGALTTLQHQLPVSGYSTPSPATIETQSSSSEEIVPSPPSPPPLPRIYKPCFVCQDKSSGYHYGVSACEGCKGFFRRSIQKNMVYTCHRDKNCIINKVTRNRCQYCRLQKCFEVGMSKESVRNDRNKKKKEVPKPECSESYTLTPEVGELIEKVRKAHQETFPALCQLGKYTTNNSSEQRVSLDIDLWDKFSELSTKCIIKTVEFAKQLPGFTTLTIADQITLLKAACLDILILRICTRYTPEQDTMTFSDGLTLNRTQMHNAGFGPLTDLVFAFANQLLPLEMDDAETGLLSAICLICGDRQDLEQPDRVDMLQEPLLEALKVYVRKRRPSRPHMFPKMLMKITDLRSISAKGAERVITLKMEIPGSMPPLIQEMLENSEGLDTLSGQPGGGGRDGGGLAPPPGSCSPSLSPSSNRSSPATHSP
# From the text: as §1, §2
# RARα [2] = target: T3, RARα (Homo sapiens, UniProt P10276); assay: PGA-RAR antagonist assay (glucocorticoid-retinoid chimeric receptors); format: cell-based; design: other: in the presence of 1 nM all-trans retinoic acid; fused on or other part: Glucocorticoid receptor DNA-recognition part in place of RAR's own; settings: in the presence of 1 nM all-trans retinoic acid; read-out: RAR IC50 (nM) (% Inhibition) α
# T3 sequence (P10276 183-417 limits assumed): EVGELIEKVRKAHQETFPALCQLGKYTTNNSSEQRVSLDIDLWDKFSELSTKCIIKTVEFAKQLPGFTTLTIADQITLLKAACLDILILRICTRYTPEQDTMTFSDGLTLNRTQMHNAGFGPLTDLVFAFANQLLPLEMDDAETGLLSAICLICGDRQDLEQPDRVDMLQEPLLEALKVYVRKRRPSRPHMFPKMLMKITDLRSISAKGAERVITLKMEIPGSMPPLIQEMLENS
# From the text: as §1
# Percentage inhibition in an antagonist assay is expressed as a percentage of the maximum inhibition of the transaction activity induced by 1 nM all-trans retinoic acid.
Compound,Ki (RARβ) [µM],Ki (RARα [1]) [µM],IC50 (RARα [2]) [nM]
"Cc1ccc(C2=CCC(C)(C)c3cc(C(/C=C/c4ccc(C(=O)O)cc4)=NO)ccc32)cc1 (racemic) [Compound 7c, 4-[3-(8,8-Dimethyl-5-p-tolyl-7,8-dihydro-naphthalen-2-yl)-3-hydroxyimino-propenyl]-benzoic acid]",1.3,2.9,> 50000
"Cc1ccc(C2=CCC(C)(C)c3cc(C(/C=C/c4ccc(C(=O)O)cc4)=N/O)ccc32)cc1 [Compound 7a, E-4-[3-(8,8-Dimethyl-5-p-tolyl-7,8-dihydro-naphthalen-2-yl)-3-hydroxyimino-propenyl]-benzoic acid]",5,3,> 1000
"Cc1ccc(C2=CCC(C)(C)c3cc(C(/C=C/c4ccc(C(=O)O)cc4)=N\O)ccc32)cc1 [Compound 7b, Z-4-[3-(8,8-dimethyl-5-p-tolyl-7,8-dihydro-naphthalen-2-yl)-3-hydroxyimino-propenyl]-benzoic acid]",1.9,5.2,> 1000
"Cc1ccc(C2=CCC(C)(C)c3cc(C(/C=C/c4ccc(C(=O)O)cc4F)=N/O)ccc32)cc1 [Compound 9a, E-4-[3-(8,8-Dimethyl-5-p-tolyl-7,8-dihydro-naphthalen-2-yl)-3-hydroxyimino-propenyl]-3-fluoro-benzoic acid]",15,13,> 1000
"Cc1ccc(C2=CCC(C)(C)c3cc(C(/C=C/c4ccc(C(=O)O)cc4F)=N\O)ccc32)cc1 [Compound 9b, Z-4-[3-(8,8-Dimethyl-5-p-tolyl-7,8-dihydro-naphthalen-2-yl)-3-hydroxyimino-propenyl]-3-fluoro-benzoic acid]",10,13,> 1000
Cc1ccc(C2=CC(C)(C)c3cc(C(/C=C/c4ccc(C(=O)O)cc4)=N/O)ccc32)cc1 [Compound 16a],10,9,> 1000
Cc1ccc(C2=CC(C)(C)c3cc(C(/C=C/c4ccc(C(=O)O)cc4)=N\O)ccc32)cc1 [Compound 16b],10,7,> 1000
"Cc1ccc(C2=CC(C)(C)c3cc(C(/C=C/c4ccc(C(=O)O)cc4F)=N/O)ccc32)cc1 [Compound 18a, E-4-[3-(3,3-Dimethyl-1-p-tolyl-3H-inden-5-yl)-3-hydroxyimino-propenyl]-3-fluoro-benzoic acid]",10,12,> 1000
"Cc1ccc(C2=CC(C)(C)c3cc(C(/C=C/c4ccc(C(=O)O)cc4F)=N\O)ccc32)cc1 [Compound 18b, Z-4-[3-(3,3-Dimethyl-1-p-tolyl-3H-inden-5-yl)-3-hydroxyimino-propenyl]-3-fluoro-benzoic acid]",10,23,> 1000
